The record followed here is patent US11713341B1, “Antimicrobial NCR13 variant peptides” (Vestaron Corporation, priority 2022, dated 2023).

The subject of this assay is Botrytis cinerea. The assay is described as follows: Antimicrobial bioassay (Botrytis cinerea): growth inhibition by OD600. To be noted: for anti-Botrytis activities relative to NCR13a: Botrytis cinerea growth, comparison with NCR13a; for Activity ratio to NCR13a: anti-Botrytis cinerea activity (IC50) relative to comparator NCR13a. Type of assay: cell-based. The protocol:
The antimicrobial effect of the NCR13 variant peptides (NVPs) of the present disclosure were evaluated against the fungal species, Botrytis cinerea. […] The growth of Botrytis cinerea was then assessed via OD600 nm after incubation with a given NVP at room temperature after 96 hours. The IC50 of each peptide analyzed is shown in ppm.
The antimicrobial effect of the NCR13 variant peptides (NVPs) of the present disclosure were evaluated against the fungal species, Botrytis cinerea. […] The growth of Botrytis cinerea was then assessed via OD600 nm after incubation with a given NVP at room temperature after 96 hours.
The NVPs assessed were as follows: NVPM3 (+L) (SEQ ID NO: 5); NVPM5 (+M) (SEQ ID NO: 7); NVPM6 (+F) (SEQ ID NO: 8); NVPM7 (+W) (SEQ ID NO: 9); NVPM9 (+S) (SEQ ID NO: 11); NVPM11 (+Y) (SEQ ID NO: 13); NVPM14 (+D) (SEQ ID NO: 16); and NVPM15 (+E) (SEQ ID NO: 17).
NVPs having an amino acid sequence of SEQ ID NOs: 5, 7, 8, 9, 11, 13, 16, and 17 were generated as described above in Example 1. The peptide, NCR13a, having an amino acid sequence of: […] (SEQ ID NO: 2) was selected as a comparator peptide, with which the antifungal activity of the foregoing NVPs was compared.
The fungal species was Botrytis cinerea was cultured in potato dextrose agar plates. Fungal spores were collected from the agar plates and suspended into de-ionized water, followed by enumeration in a Petroff-Hausser counting chamber (VWR).
The 96-well plates were incubated at room temperature for 96 hours without shaking. The OD600 of the culture plate was determined using SpectraMax plate reader. Relative OD600 was determined by normalizing cell growth to control wells containing neither NVPs nor NCR13a. The OD600 was used to determine IC50.

Where a SMILES comes first, the peptide text is derived from it.

As to `CC[C@H](C)[C@H](NC(=O)[C@H](CS)NC(=O)[C@H](CCCCN)NC(=O)[C@@H]1CCCN1C(=O)[C@@H](NC(=O)[C@H](CCCCN)NC(=O)[C@@H]1CCCN1C(=O)[C@H](CCCCN)NC(=O)[C@H](CCCNC(=N)N)NC(=O)[C@H](CS)NC(=O)[C@H](C)NC(=O)[C@H](Cc1ccccc1)NC(=O)[C@H](CCCCN)NC(=O)[C@H](CCCCN)NC(=O)[C@H](CS)NC(=O)[C@H](CC(=O)O)NC(=O)[C@H](CCCCN)NC(=O)[C@H](CC(=O)O)NC(=O)[C@H](CO)NC(=O)[C@H](CCC(N)=O)NC(=O)[C@H](CS)NC(=O)[C@@H]1CCCN1C(=O)[C@H](CCCCN)NC(=O)[C@@H](NC(=O)[C@@H](N)CO)[C@@H](C)O)C(C)C)C(=O)N[C@@H](CC(N)=O)C(=O)NCC(=O)N[C@@H](Cc1ccccc1)C(=O)N[C@@H](CS)C(=O)N[C@@H](CCCCN)C(=O)N[C@@H](CS)C(=O)N[C@H](C(=O)N[C@@H](CCCNC(=N)N)C(=O)O)C(C)C` [NVPM9] (H-STKPCQSDKDCKKFACRKPKVPKCINGFCKCVR-OH; N-terminus and C-terminus assumed), the “anti-Botrytis activities relative to NCR13a” value is “improved anti-Botrytis activities relative to NCR13a” and the “Activity ratio to NCR13a” value stood at 1.66.
On the same counts, the results for `CC[C@H](C)[C@H](NC(=O)[C@H](CS)NC(=O)[C@H](CCCCN)NC(=O)[C@@H]1CCCN1C(=O)[C@@H](NC(=O)[C@H](CCCCN)NC(=O)[C@@H]1CCCN1C(=O)[C@H](CCCCN)NC(=O)[C@H](CCCNC(=N)N)NC(=O)[C@H](CS)NC(=O)[C@H](C)NC(=O)[C@H](Cc1ccccc1)NC(=O)[C@H](CCCCN)NC(=O)[C@H](CCCCN)NC(=O)[C@H](CS)NC(=O)[C@H](CC(=O)O)NC(=O)[C@H](CCCCN)NC(=O)[C@H](CC(=O)O)NC(=O)[C@H](CO)NC(=O)[C@H](CCC(N)=O)NC(=O)[C@H](CS)NC(=O)[C@@H]1CCCN1C(=O)[C@H](CCCCN)NC(=O)[C@@H](NC(=O)[C@@H](N)CC(C)C)[C@@H](C)O)C(C)C)C(=O)N[C@@H](CC(N)=O)C(=O)NCC(=O)N[C@@H](Cc1ccccc1)C(=O)N[C@@H](CS)C(=O)N[C@@H](CCCCN)C(=O)N[C@@H](CS)C(=O)N[C@H](C(=O)N[C@@H](CCCNC(=N)N)C(=O)O)C(C)C` [NVPM3] (H-LTKPCQSDKDCKKFACRKPKVPKCINGFCKCVR-OH; N-terminus and C-terminus assumed) are “improved anti-Botrytis activities relative to NCR13a” and 4.14.
For `CC[C@H](C)[C@H](NC(=O)[C@H](CS)NC(=O)[C@H](CCCCN)NC(=O)[C@@H]1CCCN1C(=O)[C@@H](NC(=O)[C@H](CCCCN)NC(=O)[C@@H]1CCCN1C(=O)[C@H](CCCCN)NC(=O)[C@H](CCCNC(=N)N)NC(=O)[C@H](CS)NC(=O)[C@H](C)NC(=O)[C@H](Cc1ccccc1)NC(=O)[C@H](CCCCN)NC(=O)[C@H](CCCCN)NC(=O)[C@H](CS)NC(=O)[C@H](CC(=O)O)NC(=O)[C@H](CCCCN)NC(=O)[C@H](CC(=O)O)NC(=O)[C@H](CO)NC(=O)[C@H](CCC(N)=O)NC(=O)[C@H](CS)NC(=O)[C@@H]1CCCN1C(=O)[C@H](CCCCN)NC(=O)[C@@H](NC(=O)[C@@H](N)Cc1ccccc1)[C@@H](C)O)C(C)C)C(=O)N[C@@H](CC(N)=O)C(=O)NCC(=O)N[C@@H](Cc1ccccc1)C(=O)N[C@@H](CS)C(=O)N[C@@H](CCCCN)C(=O)N[C@@H](CS)C(=O)N[C@H](C(=O)N[C@@H](CCCNC(=N)N)C(=O)O)C(C)C` [NVPM6] (H-FTKPCQSDKDCKKFACRKPKVPKCINGFCKCVR-OH; N-terminus and C-terminus assumed), the “anti-Botrytis activities relative to NCR13a” value was “improved anti-Botrytis activities relative to NCR13a” and the “Activity ratio to NCR13a” value is 1.82.
On the same counts, the results for `CC[C@H](C)[C@H](NC(=O)[C@H](CS)NC(=O)[C@H](CCCCN)NC(=O)[C@@H]1CCCN1C(=O)[C@@H](NC(=O)[C@H](CCCCN)NC(=O)[C@@H]1CCCN1C(=O)[C@H](CCCCN)NC(=O)[C@H](CCCNC(=N)N)NC(=O)[C@H](CS)NC(=O)[C@H](C)NC(=O)[C@H](Cc1ccccc1)NC(=O)[C@H](CCCCN)NC(=O)[C@H](CCCCN)NC(=O)[C@H](CS)NC(=O)[C@H](CC(=O)O)NC(=O)[C@H](CCCCN)NC(=O)[C@H](CC(=O)O)NC(=O)[C@H](CO)NC(=O)[C@H](CCC(N)=O)NC(=O)[C@H](CS)NC(=O)[C@@H]1CCCN1C(=O)[C@H](CCCCN)NC(=O)[C@@H](NC(=O)[C@@H](N)CC(=O)O)[C@@H](C)O)C(C)C)C(=O)N[C@@H](CC(N)=O)C(=O)NCC(=O)N[C@@H](Cc1ccccc1)C(=O)N[C@@H](CS)C(=O)N[C@@H](CCCCN)C(=O)N[C@@H](CS)C(=O)N[C@H](C(=O)N[C@@H](CCCNC(=N)N)C(=O)O)C(C)C` [NVPM14] (H-DTKPCQSDKDCKKFACRKPKVPKCINGFCKCVR-OH; N-terminus and C-terminus assumed) are “improved anti-Botrytis activities relative to NCR13a” and 1.61.
Turning to `CC[C@H](C)[C@H](NC(=O)[C@H](CS)NC(=O)[C@H](CCCCN)NC(=O)[C@@H]1CCCN1C(=O)[C@@H](NC(=O)[C@H](CCCCN)NC(=O)[C@@H]1CCCN1C(=O)[C@H](CCCCN)NC(=O)[C@H](CCCNC(=N)N)NC(=O)[C@H](CS)NC(=O)[C@H](C)NC(=O)[C@H](Cc1ccccc1)NC(=O)[C@H](CCCCN)NC(=O)[C@H](CCCCN)NC(=O)[C@H](CS)NC(=O)[C@H](CC(=O)O)NC(=O)[C@H](CCCCN)NC(=O)[C@H](CC(=O)O)NC(=O)[C@H](CO)NC(=O)[C@H](CCC(N)=O)NC(=O)[C@H](CS)NC(=O)[C@@H]1CCCN1C(=O)[C@H](CCCCN)NC(=O)[C@@H](NC(=O)[C@@H](N)CCSC)[C@@H](C)O)C(C)C)C(=O)N[C@@H](CC(N)=O)C(=O)NCC(=O)N[C@@H](Cc1ccccc1)C(=O)N[C@@H](CS)C(=O)N[C@@H](CCCCN)C(=O)N[C@@H](CS)C(=O)N[C@H](C(=O)N[C@@H](CCCNC(=N)N)C(=O)O)C(C)C` [NVPM5] (H-MTKPCQSDKDCKKFACRKPKVPKCINGFCKCVR-OH; N-terminus and C-terminus assumed), the “anti-Botrytis activities relative to NCR13a” value is “improved anti-Botrytis activities relative to NCR13a” and the “Activity ratio to NCR13a” value came out at 2.74.
For `CC[C@H](C)[C@H](NC(=O)[C@H](CS)NC(=O)[C@H](CCCCN)NC(=O)[C@@H]1CCCN1C(=O)[C@@H](NC(=O)[C@H](CCCCN)NC(=O)[C@@H]1CCCN1C(=O)[C@H](CCCCN)NC(=O)[C@H](CCCNC(=N)N)NC(=O)[C@H](CS)NC(=O)[C@H](C)NC(=O)[C@H](Cc1ccccc1)NC(=O)[C@H](CCCCN)NC(=O)[C@H](CCCCN)NC(=O)[C@H](CS)NC(=O)[C@H](CC(=O)O)NC(=O)[C@H](CCCCN)NC(=O)[C@H](CC(=O)O)NC(=O)[C@H](CO)NC(=O)[C@H](CCC(N)=O)NC(=O)[C@H](CS)NC(=O)[C@@H]1CCCN1C(=O)[C@H](CCCCN)NC(=O)[C@@H](NC(=O)[C@@H](N)Cc1c[nH]c2ccccc12)[C@@H](C)O)C(C)C)C(=O)N[C@@H](CC(N)=O)C(=O)NCC(=O)N[C@@H](Cc1ccccc1)C(=O)N[C@@H](CS)C(=O)N[C@@H](CCCCN)C(=O)N[C@@H](CS)C(=O)N[C@H](C(=O)N[C@@H](CCCNC(=N)N)C(=O)O)C(C)C` [NVPM7] (H-WTKPCQSDKDCKKFACRKPKVPKCINGFCKCVR-OH; N-terminus and C-terminus assumed) the same measures were “improved anti-Botrytis activities relative to NCR13a” and 2.71.
Turning to `CC[C@H](C)[C@H](NC(=O)[C@H](CS)NC(=O)[C@H](CCCCN)NC(=O)[C@@H]1CCCN1C(=O)[C@@H](NC(=O)[C@H](CCCCN)NC(=O)[C@@H]1CCCN1C(=O)[C@H](CCCCN)NC(=O)[C@H](CCCNC(=N)N)NC(=O)[C@H](CS)NC(=O)[C@H](C)NC(=O)[C@H](Cc1ccccc1)NC(=O)[C@H](CCCCN)NC(=O)[C@H](CCCCN)NC(=O)[C@H](CS)NC(=O)[C@H](CC(=O)O)NC(=O)[C@H](CCCCN)NC(=O)[C@H](CC(=O)O)NC(=O)[C@H](CO)NC(=O)[C@H](CCC(N)=O)NC(=O)[C@H](CS)NC(=O)[C@@H]1CCCN1C(=O)[C@H](CCCCN)NC(=O)[C@@H](NC(=O)[C@@H](N)CCC(=O)O)[C@@H](C)O)C(C)C)C(=O)N[C@@H](CC(N)=O)C(=O)NCC(=O)N[C@@H](Cc1ccccc1)C(=O)N[C@@H](CS)C(=O)N[C@@H](CCCCN)C(=O)N[C@@H](CS)C(=O)N[C@H](C(=O)N[C@@H](CCCNC(=N)N)C(=O)O)C(C)C` [NVPM15] (H-ETKPCQSDKDCKKFACRKPKVPKCINGFCKCVR-OH; N-terminus and C-terminus assumed), the “anti-Botrytis activities relative to NCR13a” value was “improved anti-Botrytis activities relative to NCR13a” and the “Activity ratio to NCR13a” value is given as 1.43.
